In general, Kd refers to a measure of binding affinity in units of concentration. The term IC50 denotes the midpoint of a concentration-inhibition curve.

Experiment [1] deals with T1, RAR β (Homo sapiens, UniProt P10826).
T1 sequence (P10826 1-455): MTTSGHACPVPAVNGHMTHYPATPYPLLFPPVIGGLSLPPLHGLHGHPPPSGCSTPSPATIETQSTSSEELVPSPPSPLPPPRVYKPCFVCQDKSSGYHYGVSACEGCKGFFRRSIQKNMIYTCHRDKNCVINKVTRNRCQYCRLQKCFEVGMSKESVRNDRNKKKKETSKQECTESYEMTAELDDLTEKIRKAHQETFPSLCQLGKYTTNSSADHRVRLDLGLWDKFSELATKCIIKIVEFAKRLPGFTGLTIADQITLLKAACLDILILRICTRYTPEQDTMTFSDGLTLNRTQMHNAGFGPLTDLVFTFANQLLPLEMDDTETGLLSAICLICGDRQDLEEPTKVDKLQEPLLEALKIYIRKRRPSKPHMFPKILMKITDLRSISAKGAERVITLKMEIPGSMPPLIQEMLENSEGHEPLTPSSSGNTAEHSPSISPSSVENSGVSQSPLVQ
Put plainly: RAR β Kd. In kind it is binding. The settings on record: last item of cell EC50/(EFFICACY)/Kd.

Experiment [2] addresses T2, RAR α (Homo sapiens, UniProt P10276).
T2 sequence (P10276 1-462): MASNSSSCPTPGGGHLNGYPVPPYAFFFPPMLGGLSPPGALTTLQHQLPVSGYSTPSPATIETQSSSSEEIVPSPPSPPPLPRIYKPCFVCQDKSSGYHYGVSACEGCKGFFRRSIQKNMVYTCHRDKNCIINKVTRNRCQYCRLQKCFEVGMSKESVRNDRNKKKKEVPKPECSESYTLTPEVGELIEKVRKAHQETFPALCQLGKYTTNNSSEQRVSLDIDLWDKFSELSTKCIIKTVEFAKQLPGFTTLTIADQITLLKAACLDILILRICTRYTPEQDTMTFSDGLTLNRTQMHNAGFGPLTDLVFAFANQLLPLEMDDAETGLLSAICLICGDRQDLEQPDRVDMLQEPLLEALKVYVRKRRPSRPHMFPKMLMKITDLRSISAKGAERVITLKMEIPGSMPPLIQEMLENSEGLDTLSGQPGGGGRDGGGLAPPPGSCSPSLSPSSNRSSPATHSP
Put plainly: RAR α Kd. Type of experiment: binding. The following applies: last item of cell EC50/(EFFICACY)/Kd.

For experiment [3], the target named is T3, CYP26A (P450RAI-1) (Homo sapiens, UniProt O43174).
T3 construct: expressed in transfected cells; host or cells: HeLa
T3 sequence (O43174 1-497): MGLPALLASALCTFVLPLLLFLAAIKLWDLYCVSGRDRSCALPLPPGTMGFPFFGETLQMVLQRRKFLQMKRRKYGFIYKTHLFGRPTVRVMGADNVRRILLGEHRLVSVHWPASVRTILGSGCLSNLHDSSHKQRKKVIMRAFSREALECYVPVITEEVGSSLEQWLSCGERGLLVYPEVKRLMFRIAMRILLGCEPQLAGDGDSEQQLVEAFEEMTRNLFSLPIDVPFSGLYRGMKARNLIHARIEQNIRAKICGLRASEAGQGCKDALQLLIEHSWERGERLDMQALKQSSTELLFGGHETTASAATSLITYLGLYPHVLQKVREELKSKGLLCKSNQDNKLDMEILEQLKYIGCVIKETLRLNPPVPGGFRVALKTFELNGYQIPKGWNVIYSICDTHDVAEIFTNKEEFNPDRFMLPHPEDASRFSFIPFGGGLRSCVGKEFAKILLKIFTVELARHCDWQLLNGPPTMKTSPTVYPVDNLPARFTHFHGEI
Put plainly: Cell-based inhibition of RA metabolism in CYP26A stably transfected HeLa cells. The settings on record: stably transfected HeLa cells, [3H]-RA, 3 hours at 37° C.; read-out: P450RAI-1 Whole cell IC50. On the procedure: (§1) In brief, CYP26A or CYP26B can be stably transfected into HeLa cells. Exponentially growing cells are harvested by incubating in trypsin. Cells are then washed and plated in a 48-well plate at 5×10^5 cells in 0.2 ml MEM medium containing 10% FBS and 0.05 μCi [^3H]-RA in the presence or absence of increasing concentrations of the test compounds. The compounds are diluted in 100% DMSO and then added in triplicate wells at either 10, 1 or 0.1 μM final concentration. As a positive control for RA metabolism inhibition, cells are also incubated with ketoconazole at 100, 10 and 1 μM. Cells are incubated for 3 hours at 37 degrees C. The retinoids are then extracted using the procedure of Bligh et al., Canadian Journal of Biochemistry 37: 911-917 (1959), modified by using methylenechloride instead of chloroform. This publication by Bligh et al., is specifically incorporated herein by reference. The water soluble radioactivity is quantified using a β scintillation counter, and IC50 values are determined.
(§2) CYP26A and CYP26B stably transfected HeLa cells were maintained in 100 mm tissue culture dishes in MEM medium containing 10% FBS and 100 μg/ml hygromycin.
(§3) Exponentially growing cells were harvested by incubating in trypsin. Cells were then washed with 1×PBS and plated in a 48-well plate at 5×10^5 cells in 0.2 ml MEM medium containing 10% FBS and 0.05 μCi [^3H]-RA in the presence or absence of increasing concentrations of the test compounds. The compounds were diluted in 100% DMSO and then added to triplicate wells at final concentrations of 10, 1 or 0.1 μM. As a positive control for RA metabolism inhibition, cells were also incubated with ketoconazole at 100, 10 and 1 μM. Cells were incubated for 3 hours at 37° C. The retinoids were then extracted using a modified Bligh and Dyer procedure (Bligh and Dyer, supra (1959)), in which methylene-chloride, as opposed to chloroform, was used, and the aqueous soluble radioactivity quantified using a β-scintillation counter. ID50 values represent the concentration of inhibitor required to inhibit RA metabolism by 50 percent and were derived manually from log-transformed data.

For experiment [4], the target named is T4, RAR γ (Homo sapiens, UniProt P13631).
T4 sequence (P13631 1-454): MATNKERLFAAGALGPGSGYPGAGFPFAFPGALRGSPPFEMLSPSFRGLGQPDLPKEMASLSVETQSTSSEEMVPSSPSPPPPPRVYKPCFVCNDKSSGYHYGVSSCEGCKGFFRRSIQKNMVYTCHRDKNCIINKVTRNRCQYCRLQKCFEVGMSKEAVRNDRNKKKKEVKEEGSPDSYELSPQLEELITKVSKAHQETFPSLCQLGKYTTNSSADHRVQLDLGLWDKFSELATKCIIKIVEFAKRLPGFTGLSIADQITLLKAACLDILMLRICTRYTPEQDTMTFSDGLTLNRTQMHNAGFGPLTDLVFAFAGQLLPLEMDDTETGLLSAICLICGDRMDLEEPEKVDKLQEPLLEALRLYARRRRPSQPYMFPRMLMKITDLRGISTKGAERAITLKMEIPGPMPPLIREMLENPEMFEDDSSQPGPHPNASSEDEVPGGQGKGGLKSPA
Description: RAR γ Kd. Type of experiment: binding. The settings on record: last item of cell EC50/(EFFICACY)/Kd.

The target of experiment [5] is T5, CYP26B (P450RAI-2) (Homo sapiens, UniProt Q9NR63).
T5 construct: expressed in transfected cells; host or cells: HeLa
T5 sequence (Q9NR63 1-512): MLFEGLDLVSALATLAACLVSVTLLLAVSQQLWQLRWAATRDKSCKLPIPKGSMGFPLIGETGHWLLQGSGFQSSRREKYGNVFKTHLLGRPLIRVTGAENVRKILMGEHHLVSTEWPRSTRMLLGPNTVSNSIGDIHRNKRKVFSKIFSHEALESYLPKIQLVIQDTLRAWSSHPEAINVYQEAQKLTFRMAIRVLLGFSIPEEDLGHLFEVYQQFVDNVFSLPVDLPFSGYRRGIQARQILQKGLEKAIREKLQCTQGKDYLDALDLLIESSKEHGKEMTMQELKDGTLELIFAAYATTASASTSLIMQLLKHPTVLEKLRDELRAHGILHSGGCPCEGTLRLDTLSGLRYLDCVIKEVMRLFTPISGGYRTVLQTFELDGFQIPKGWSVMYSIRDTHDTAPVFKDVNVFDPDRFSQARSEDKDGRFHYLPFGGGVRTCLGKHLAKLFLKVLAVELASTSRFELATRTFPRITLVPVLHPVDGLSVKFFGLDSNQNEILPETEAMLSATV
Description: Cell-based inhibition of RA metabolism in CYP26B stably transfected HeLa cells. The settings on record: stably transfected HeLa cells, [3H]-RA, 3 hours at 37° C.; read-out: P450RAI-2 Whole cell IC50. As to the method:
as §1, §2, §3

With `CC1(C)CC(C)(C)c2cc(C#Cc3ccc(C(C)(C)C(=O)O)cc3)cc(O)c2O1` [Compound 12, 2-[4-(8-Hydroxy-2,2,4,4-tetramethyl-chroman-6-ylethynyl)-phenyl]-2-methyl-propionic acid], the Kd in experiment [1], in experiment [2] and in experiment [4] was over 10 µM throughout. The IC50 is 0.16 µM in experiment [3] and over 10 µM in experiment [5].
For `CC(C)Oc1cc(C#Cc2ccc(CC(=O)O)cc2)cc2c1OC(C)(C)CC2(C)C` [Compound 13, [4-(8-Isopropoxy-2,2,4,4-tetramethyl-chroman-6-ylethynyl)-phenyl]-acetic acid], the Kd in experiment [1] was over 10 µM; in experiment [2], 0.397 µM; in experiment [4] it was over 10 µM. Also, the IC50 in experiment [3] is 0.06 µM; in experiment [5], 8 µM.
Consider `CC(C)c1cc(C#Cc2cccc(/C=C/C(=O)O)c2)cc2c1OC(C)(C)CC2(C)C` [Compound 15, 3-[3-(8-Isopropyl-2,2,4,4-tetramethyl-chroman-6-ylethynyl)-phenyl]-acrylic acid], for which the figures for the Kd in experiment [1], in experiment [2] and in experiment [4] were over 10 µM, 8.9 µM and over 10 µM, respectively. The IC50 was 0.6 µM in experiment [3] and over 10 µM in experiment [5].
Regarding `CN(C1CC1)C1CCC(C)(C)c2cc(NC(=O)Nc3ccc(C(=O)O)cc3)ccc21` (centres unmarked) [Compound 21, 4-{3-[5-(Cyclopropyl-methyl-amino)-8,8-dimethyl-5,6,7,8-tetrahydro-naphthalen-2-yl]-ureido}-benzoic acid], the Kd in experiment [1], in experiment [2] and in experiment [4] was over 10 µM throughout. Besides, the IC50 in experiment [3] is over 10 µM; in experiment [5], 0.7 µM.
Turning to `COc1cc(C#Cc2ccc(CC(=O)O)cc2)cc2c1C(N(C)C1CC1)CCC2(C)C` (centres unmarked) [Compound 25, {4-[5-(Cyclopropyl-methyl-amino)-4-methoxy-8,8-dimethyl-5,6,7,8-tetrahydro-naphthalen-2-ylethynyl]-phenyl}-acetic acid], the values for the Kd in experiment [1], in experiment [2] and in experiment [4] were over 10 µM, over 10 µM and 0.317 µM, respectively. Moreover, the IC50 was 0.1 µM in experiment [3] and over 10 µM in experiment [5].
With `COc1cc(C#Cc2ccc(C(C)C(=O)O)cc2)cc2c1C(N(C)C1CC1)CCC2(C)C` (centres unmarked) [Compound 27, 2-{4-[5-(Cyclopropyl-methyl-amino)-4-methoxy-8,8-dimethyl-5,6,7,8-tetrahydro-naphthalen-2-ylethynyl]-phenyl}-propionic acid], the Kd is 1.27 µM in experiment [1], 0.118 µM in experiment [2] and over 10 µM in experiment [4]. In addition, the IC50 in experiment [3] was 0.028 µM; in experiment [5] it was over 10 µM.
In the case of `COc1cc(C#Cc2ccc(C(C)(C)C(=O)O)cc2)cc2c1C(N(C)C1CC1)CCC2(C)C` (centres unmarked) [Compound 28, 2-{4-[5-(Cyclopropyl-methyl-amino)-4-methoxy-8,8-dimethyl-5,6,7,8-tetrahydro-naphthalen-2-ylethynyl]-phenyl}-2-methyl-propionic acid], the figures for the Kd in experiment [1], in experiment [2] and in experiment [4] were over 10 µM, over 10 µM and 4.2 µM, respectively. In addition, the IC50 in experiment [3] was 0.25 µM; in experiment [5], over 10 µM.
In the case of `COc1cc(C#Cc2ccc(/C=C/C(=O)O)cc2)cc2c1C(N(C)C1CC1)CCC2(C)C` (centres unmarked) [Compound 29, (E)-3-{4-[5-(Cyclopropyl-methyl-amino)-4-methoxy-8,8-dimethyl-5,6,7,8-tetrahydro-naphthalen-2-ylethynyl]-phenyl}-acrylic acid], the Kd in experiment [1], in experiment [2] and in experiment [4] was over 10 µM in each case. Moreover, the results for the IC50 in experiment [3] and in experiment [5] were 0.6 µM and over 10 µM, respectively.
As to `C/C(=C/C(=O)O)c1ccc(C#Cc2cccc(CN(C)C3CC3)c2)cc1` [Compound 32, 3-(4-{3-[(Cyclopropyl-methyl-amino)-methyl]-phenylethynyl}-phenyl)-but-2-enoic acid], the equilibrium dissociation constant (Kd) in experiment [1], in experiment [2] and in experiment [4] was over 10 µM throughout. The results for the IC50 in experiment [3] and in experiment [5] were 0.44 µM and over 10 µM, respectively.
Regarding `CC(C)OC(=O)c1ccc(C#Cc2ccc(CC(=O)O)c(F)c2)cc1CN(C)C1CC1` [Compound 39, 4-(4-Carboxymethyl-3-fluoro-phenylethynyl)-2-[(cyclopropyl-methyl-amino)-methyl]-benzoic acid isopropyl ester], the Kd in experiment [1], in experiment [2] and in experiment [4] was over 10 µM each time. Further, the IC50 in experiment [3] is 2.5 µM; in experiment [5], over 10 µM.

(Values after patent US7468391B2, “Methods for treating retinoid responsive disorders using selective inhibitors of CYP26A and CYP26B” (Allergan, Inc., priority 2003, dated 2008).)
